One experiment deals with DHL-6 cell line. As to the kind of experiment: In situ mitochondrial cytochrome c release assay, DHL-6. The conditions noted are these: semi-permeabilized cells, 1 hour; Bax/Bak-functional cell line; FIG. 3. It is filed as cell-based. From the text:
(§1) The on-target activity of compound 12 was validated. Changes in mitochondrial integrity were observed utilizing anti-cytochrome c conjugated to Alexa488 (BD). When the mitochondria are intact, they retain cytochrome c and have bright, punctate staining with the antibody whereas cells with compromised mitochondrial integrity will lose cytochrome c and will not stain with the antibody. This can be observed by microscopy as well as measured by a shift in fluorescence on the FL1 channel of a flow cytometer.
(§2) The selective response of mitochondria in semi-permeabilized cell lines to the compounds was observed. The assay was adapted from (Campos et al. (2006) Cytometry Part A. 69(A):515-523, which is hereby incorporated by reference in its entirety).
(§3) Suspension cell lines SUDHL6, SUDHL8, and SUDHL10 were grown in RPMI, washed once in 1×PBS and re-suspended at a concentration of 2e6/ml in assay buffer with 0.0025% Digitonin. Assay buffer; 300 mM Trehalose, 10 mM HEPES-KOH pH 7.7, 80 mM KCl, 1 mM EGTA, 1 mM EDTA, 0.1% BSA, 5 mM Succinate. […] Cytochrome c loss was measured by microscopy. At least 100 cells per treatment were counted and scored as positive for cytochrome c loss if they lacked staining. In both methods DMSO was calculated as 0% cytochrome c loss and the Bim response for DHL6 was used to determine 100% cytochrome c loss.

Another experiment concerns DHL-8 cell line. As to the kind of experiment: In situ mitochondrial cytochrome c release assay, DHL-8. The format is cell-based. Conditions: semi-permeabilized cells, 1 hour; reduced mitochondrial priming; FIG. 3.
Description: as §1, §2, §3

A further experiment deals with Mcl-1 1780 cell line. As to the kind of experiment: DAPI fluorescence cell-based cytotoxicity (apoptosis) assay, Mcl-1 1780. The arrangement: species or system mouse. The conditions noted are these: 1 μM, 500 nM, 250 nM, 125 nM; 24 hours; FIG. 2. How it is done: (§4) The mouse leukemia-derived cell lines Mcl-1-1780 and Bcl-2-1863 (Ryan et al., Proc. Nat. Acad. Sci USA, 107, 12895-12900, which is hereby incorporated by reference in its entirety) were obtained under license from Dana Farber Cancer Institute. Cells were grown in RPMI 1640 medium (GIBCO-BRL) with 2 mM L-glutamine, 4.5 g/L glucose, 1.0 mM sodium pyruvate and 5% fetal bovine serum. Cells were expanded in tissue culture in appropriate media and then sub-cultured into 96-well plates at a seeding density of 20,000 cells per well. After incubation for 24 hours, cells were treated with compounds that are titrated into appropriate medium with FCS. Four concentrations of compound were used: 1 μM, 500 nM, 250 nM, and 125 nM. Assay was run in triplicate for each compound at each concentration and averages were calculated. Cells were treated with compound for 24 hours, then fixed with methanol and stained with the DNA-binding agent DAPI (4′,6-diamidino-2-phenylindole). The cells were then examined by fluorescent microscopy; cells in which caspase 3 and caspase 7 have not been activated will emit at […] when excited by […] light. Caspase-mediated cleavage of nucleosomal proteins causes condensed, pycnotic nuclear morphology that may be measured by cell counting.

The test system of a further experiment is Bcl-2 1863 cell line. As to the kind of experiment: DAPI fluorescence cell-based cytotoxicity (apoptosis) assay, Bcl-2 1863. Further details: species or system mouse. The conditions noted are these: 1 μM, 500 nM, 250 nM, 125 nM; 24 hours; relative to Mcl-1 1780; FIG. 2. How it is done: as §4
A further experiment deals with DHL-10 cell line. As to the kind of experiment: In situ mitochondrial cytochrome c release assay, DHL-10. The format is cell-based. The conditions noted are these: semi-permeabilized cells, 1 hour; Bax/Bak-deficient cell line; FIG. 3.
Description: as §1, §2, §3

Consider `CCN1CCN(C(c2ccc(C(F)(F)F)cc2)c2ccc3cccnc3c2O)CC1` (centres unmarked) [Compound 12, 7-((4-ethylpiperazin-1-yl)(4-(trifluoromethyl)phenyl)methyl)quinolin-8-ol], for which, in the experiment with DHL-6 cell line, the “Cytochrome c release, DHL-6” value is on record as “activity”. For the same compound, the “Cytochrome c release, DHL-8” value in the experiment with DHL-8 cell line is “reduced activity”. The “Induction of apoptosis (DAPI nuclear morphology) in Mcl-1 1780” value in the experiment with Mcl-1 1780 cell line is “induce apoptosis”. The “Induction of apoptosis (DAPI nuclear morphology) in Bcl-2 1863” value in the experiment on Bcl-2 1863 cell line is reported as “significantly lesser degree”. For the same compound, the “Cytochrome c release, DHL-10” value with DHL-10 cell line was “lack of activity”.

The record behind these values is patent US20150133450A1, “METHODS AND COMPOSITIONS USEFUL FOR TREATING DISEASES INVOLVING BCL-2 FAMILY PROTEINS WITH QUINOLINE DERIVATIVES” (Eutropics Pharmaceuticals, Inc., priority 2012, published 2015).
